Measurements: patent publication EP0108170A1, “3-Benzazepines as alpha-2 antagonists” (SMITHKLINE BECKMAN CORPORATION, priority 1982, dated 1984)

Tests used:
alpha2 = assay: prejunctional alpha2 antagonist activity, isolated superfused guinea pig left atrium (shift of clonidine concentration-response curve); type: cell-based
Procedure: Briefly, the heart is removed from a pentobarbital-anesthetized male guinea pig. The left atrium is removed, dissected free of extraneous tissue and mounted in a 2 ml. superfusion chamber. The tissue is paced at 60 pulse/minute and the sympathetic nerves excited at 6 minute intervals by field stimulation. The response to nerve stimulation is measured as the difference in contractile force between the basal contraction and peak contraction following a nerve stimulation. A concentration-response curve for clonidine (alpha2 agonist) is prepared by administering an increasing concentration of clonidine following each successive stimulation. The tissue is then superfused with the alpha2 antagonist to be tested for thirty minutes and the clonidine concentration-effect curve was repeated in the presence of antagonist. The receptor dissociation constant of the antagonist (KB) is defined as the antagonist concentration required to shift the log concentration-response curve of the agonist to the right by a factor of 2.

rabbit = assay: normal rabbit intraocular pressure determination (applanation pneumatonograph); type: in vivo; details: given systemically
[1] = tested on: normotensive and hypertensive rats; assay: antihypertensive activity in vivo, blood pressure in conscious cannulated rats; details: for effect on diastolic blood pressure: i.v. administration
Procedure: Cannulas are run intradermally so as to be externalized in the dorso-sacral area of either side and kept in place by wound clips. The rats are allowed to regain consciousness after being placed in a small animal restrainer. The arterial cannula is connected to a pressure transducer for constant blood pressure and heart rate monitoring. Drugs are administered either orally via gavage or i.v. via the femoral vein cannula at a rate of 0.06 ml./minute.
The above test is conducted on both normotensive and hypertensive rats. DOCA Salt hypertensive rats are prepared from male uninephrectomized Sprague-Dawley rats. The rats, approximately six weeks of age, are lightly anesthetized with ether and subcutaneously implanted with a 25 mg. deoxycorticosterone acetate pellet in the left dorso-sacral area..Six days later a second pellet is implanted in the right dorso-sacral area. These rats are fed a normal laboratory diet, but are given 1% saline - solution to drink in place of water. The rats are kept on the saline drinking water for 22-24 days.
The following table sets forth the effect of 6-chloro-2,3,4,5-tetrahydro-3-methyl-lH-3-benzazepine on blood pressure after i.v. administration to both normotensive and hypertensive rats.

Row | Compound | alpha2 antagonist activity relative to the 6-chloro derivative (alpha2; fraction of the activity of the 6-chloro derivative) | effect on systemic blood pressure (rabbit) | effect on diastolic blood pressure ([1]; DOCA Salt hypertensive rats) | antihypertensive effect, dose dependence ([1]; comparison of the 0.5 mg./kg. and 1.0 mg./kg. doses, i.v.) | effect on diastolic blood pressure ([1]; normotensive rats) | effect on diastolic blood pressure ([1]; spontaneously hypertensive rats) | Kb (alpha2; isolated perfused guinea pig left atrium, antagonist concentration shifting clonidine curve to the right by a factor of 2)
1 | CN1CCc2ccc(Cl)cc2CC1 [7-chloro-2,3,4,5-tetrahydro-3-methyl-lH-3-benzazepine, reference compound] | about one tenth |  |  |  |  |  | 
2 | CN1CCc2cccc(Cl)c2CC1 [6-chloro-2,3,4,5-tetrahydro-3-methyl-lH-3-benzazepine] |  | no significant effect | marked drop | dose- related | little effect | marked drop | 13 nM
